Data reported in ChEMBL document CHEMBL3751750, “2-Amino-4-bis(aryloxybenzyl)aminobutanoic acids: A novel scaffold for inhibition of ASCT2-mediated glutamine transport” (Bioorg Med Chem Lett, 2016).

Key:
[1] = molecular target: T1, Neutral amino acid transporter B(0) (Homo sapiens, UniProt Q15758); test: Inhibition of ASCT2 (unknown origin)-mediated glutamine transport
T1 sequence (Q15758 whole entry): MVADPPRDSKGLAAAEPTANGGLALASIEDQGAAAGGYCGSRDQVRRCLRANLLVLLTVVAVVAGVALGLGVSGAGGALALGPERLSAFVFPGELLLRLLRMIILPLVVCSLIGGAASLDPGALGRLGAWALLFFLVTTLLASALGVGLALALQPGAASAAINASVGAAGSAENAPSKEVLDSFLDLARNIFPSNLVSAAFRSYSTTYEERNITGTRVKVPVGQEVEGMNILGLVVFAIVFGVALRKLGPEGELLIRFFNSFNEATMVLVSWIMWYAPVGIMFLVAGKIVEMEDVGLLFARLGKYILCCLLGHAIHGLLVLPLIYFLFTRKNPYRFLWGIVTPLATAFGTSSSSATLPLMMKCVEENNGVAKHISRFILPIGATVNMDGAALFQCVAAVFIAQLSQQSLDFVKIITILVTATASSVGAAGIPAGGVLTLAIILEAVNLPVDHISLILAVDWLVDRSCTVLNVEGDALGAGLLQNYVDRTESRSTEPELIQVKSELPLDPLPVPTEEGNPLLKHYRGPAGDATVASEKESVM

[2] = molecular target: T1, Neutral amino acid transporter B(0); test: Inhibition of ASCT2-mediated glutamine transport in human HEK293 cells using [3H]-glutamine after 15 mins by scintillation counting; type: cell-based
Amino acid transporter = molecular target: T2, Amino acid transporter (Rattus norvegicus, UniProt Q9Z1J7); test: Inhibition of ASCT2-mediated glutamine transport in rat C6 cells using [3H]-glutamine after 15 mins by scintillation counting; type: cell-based
T2 sequence (Q9Z1J7 whole entry): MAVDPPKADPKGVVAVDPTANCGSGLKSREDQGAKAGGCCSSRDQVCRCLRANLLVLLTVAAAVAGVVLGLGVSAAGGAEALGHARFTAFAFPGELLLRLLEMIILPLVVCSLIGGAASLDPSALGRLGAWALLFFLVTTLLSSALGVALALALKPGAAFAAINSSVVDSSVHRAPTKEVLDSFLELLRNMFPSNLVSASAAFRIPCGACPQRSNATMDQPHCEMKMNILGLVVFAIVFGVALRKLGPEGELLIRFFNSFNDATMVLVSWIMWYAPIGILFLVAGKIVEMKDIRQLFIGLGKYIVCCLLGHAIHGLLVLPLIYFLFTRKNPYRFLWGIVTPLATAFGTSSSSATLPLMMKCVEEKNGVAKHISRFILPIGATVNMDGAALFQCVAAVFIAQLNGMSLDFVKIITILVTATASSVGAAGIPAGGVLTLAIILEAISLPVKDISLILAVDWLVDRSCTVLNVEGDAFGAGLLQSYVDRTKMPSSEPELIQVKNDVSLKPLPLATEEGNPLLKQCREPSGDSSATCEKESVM

IC50 [1] | IC50 [2] | IC50 (Amino acid transporter) | SMILES
30 µM |  |  | N[C@@H](COC(=O)c1ccc(-c2ccccc2)cc1)C(=O)O
 | 48.3 µM | 8.4 µM | N[C@@H](CCN(Cc1ccccc1OCc1ccccn1)Cc1ccccc1OCc1ccccn1)C(=O)O
 |  | 3.3 µM | N[C@@H](CCN(Cc1ccccc1OCc1ccccc1F)Cc1ccccc1OCc1ccccc1F)C(=O)O
 | 33.8 µM | 1.8 µM | N[C@@H](CCN(Cc1ccccc1Oc1ccccc1F)Cc1ccccc1Oc1ccccc1F)C(=O)O
 | 40.1 µM | 18.4 µM | N[C@@H](CCN(Cc1ccccc1OCc1ccccc1Cl)Cc1ccccc1OCc1ccccc1Cl)C(=O)O
 | 142 µM | 10.5 µM | N[C@@H](CCN(Cc1ccccc1Oc1ccc(F)cc1)Cc1ccccc1Oc1ccc(F)cc1)C(=O)O
 | 26 µM |  | N[C@@H](CCN(Cc1ccccc1Oc1ccc(Cl)cc1)Cc1ccccc1Oc1ccc(Cl)cc1)C(=O)O
 | 25.6 µM | 41.7 µM | Cc1ccccc1COc1ccccc1CN(CC[C@H](N)C(=O)O)Cc1ccccc1OCc1ccccc1C
3.7 µM |  |  | N#Cc1cc(Br)ccc1/N=c1\ssnc1Cl
 | 11.9 µM | 8.7 µM | COc1ccc(Oc2ccccc2CN(CC[C@H](N)C(=O)O)Cc2ccccc2Oc2ccc(OC)cc2)cc1
 | 50.8 µM | 12.7 µM | N[C@@H](CCN(Cc1ccccc1OCc1cccc(Cl)c1)Cc1ccccc1OCc1cccc(Cl)c1)C(=O)O
 | 33.7 µM | 20.1 µM | N[C@@H](CCN(Cc1ccccc1OCc1ccc(Cl)cc1)Cc1ccccc1OCc1ccc(Cl)cc1)C(=O)O
 | 69.1 µM | 17.3 µM | N[C@@H](CCN(Cc1ccccc1OCc1cccnc1)Cc1ccccc1OCc1cccnc1)C(=O)O
 | 7.2 µM | 5.1 µM | COc1cccc(COc2ccccc2CN(CC[C@H](N)C(=O)O)Cc2ccccc2OCc2cccc(OC)c2)c1
1000 µM | 1200 µM |  | N[C@@H](CCC(=O)Nc1ccc([N+](=O)[O-])cc1)C(=O)O

SMILES | IC50 [1] | IC50 [2] | IC50 (Amino acid transporter)
N[C@@H](CCN(Cc1ccccc1Oc1cccc(F)c1)Cc1ccccc1Oc1cccc(F)c1)C(=O)O |  |  | 36.3 µM
N[C@@H](CCN(Cc1ccccc1Oc1ccccn1)Cc1ccccc1Oc1ccccn1)C(=O)O |  | 59.6 µM | 68.2 µM
COc1cccc(Oc2ccccc2CN(CC[C@H](N)C(=O)O)Cc2ccccc2Oc2cccc(OC)c2)c1 |  | 57.2 µM | 1.3 µM
Cc1ccc(COc2ccccc2CN(CC[C@H](N)C(=O)O)Cc2ccccc2OCc2ccc(C)cc2)cc1 |  | 17.5 µM | 86.4 µM
N[C@@H](CCN(Cc1ccccc1OCc1ccc(F)cc1)Cc1ccccc1OCc1ccc(F)cc1)C(=O)O |  |  | 11.2 µM
